Reference: patent US10144732B2 (BIOGEN MA INC., priority 2014, dated 2018)
Counter-ions that a name gives are not always drawn.

molecular target: T1, Human ATX protein (Homo sapiens, UniProt Q13822); assay: ATX biochemical assay (FRET, FS-3 substrate); conditions: FRET assay, FS-3 2 μM, ATX 1.0 μg/mL, 30 minutes preincubation, 2 hours reaction at room temperature; read-out: IC50
T1 construct: made in house
In short: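 FRET read-out: cleavage of FS-3 (2 μM final) unquenches fluorescein, measured at 485/538 nm after 2 h at room temperature. Before substrate addition, in-house-expressed human autotaxin (1.0 μg/mL) sat with compound for 30 min in pH 7.4 Tris/NaCl/KCl/CaCl2/MgCl2 buffer containing fatty acid free-BSA at 1 mg/mL.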

IC50 [nM]	SMILES
≤ 100	O=C(O)CCC(=O)N1CCc2c(C(F)(F)F)nn(Cc3ccc(Cl)cc3F)c2C1 [Example 14-3, 4-(1-(4-Chloro-2-fluorobenzyl)-3-(trifluoromethyl)-4,5-dihydro-1H-pyrazolo[3,4-c]pyridin-6(7H)-yl)-4-oxobutanoic acid]
≤ 100	O=C(O)CN1CCC(CC(=O)N2CCc3c(C(F)(F)F)nn(Cc4ccc(Cl)cc4F)c3C2)CC1 [Example 15-1, 2-(4-(2-(1-(4-Chloro-2-fluorobenzyl)-3-(trifluoromethyl)-4,5-dihydro-1H-pyrazolo[3,4-c]pyridin-6(7H)-yl)-2-oxoethyl)piperidin-1-yl)acetic acid]
100 to 250	O=C(O)CCN1CCC(C(=O)N2CCc3c(C(F)(F)F)nn(Cc4ccc(F)cc4)c3C2)C1 (stereo not drawn) [Example 15-2, 3-(3-(1-(4-Fluorobenzyl)-3-(trifluoromethyl)-4,5,6,7-tetrahydro-1H-pyrazolo[3,4-c]pyridine-6-carbonyl)pyrrolidin-1-yl)propanoic acid TFA salt]
> 10000	O=C(O)CCN1CCC(C(=O)N2CCc3c(C(F)(F)F)nn(Cc4ccc(Cl)cc4F)c3C2)C1 (stereo not drawn) [Example 15-3, 3-(3-(1-(4-chloro-2-fluorobenzyl)-3-(trifluoromethyl)-4,5,6,7-tetrahydro-1H-pyrazolo[3,4-c]pyridine-6-carbonyl)pyrrolidin-1-yl)propanoic acid]
≤ 100	O=C(O)CN1CCC(C(=O)N2CCc3c(C(F)(F)F)nn(Cc4ccc(F)cc4)c3C2)C1 (stereo not drawn) [Example 15-4, 2-(3-(1-(4-Fluorobenzyl)-3-(trifluoromethyl)-4,5,6,7-tetrahydro-1H-pyrazolo[3,4-c]pyridine-6-carbonyl)pyrrolidin-1-yl)acetic acid TFA salt]
≤ 100	O=C(O)CN1CCC(C(=O)N2CCc3c(C(F)(F)F)nn(Cc4ccc(Cl)cc4F)c3C2)C1 (stereo not drawn) [Example 15-5, 2-(3-(1-(4-Chloro-2-fluorobenzyl)-3-(trifluoromethyl)-4,5,6,7-tetrahydro-1H-pyrazolo[3,4-c]pyridine-6-carbonyl)pyrrolidin-1-yl)acetic acid TFA salt]
≤ 100	COC(=O)N1CCCC(CC(=O)N2CCc3c(C(F)(F)F)nn(Cc4ccc(F)cc4)c3C2)C1 (stereo not drawn) [Example 16-1, Methyl 3-(2-(1-(4-fluorobenzyl)-3-(trifluoromethyl)-4,5-dihydro-1H-pyrazolo[3,4-c]pyridin-6(7H)-yl)-2-oxoethyl)piperidine-1-carboxylate]
≤ 100	CC(=O)N1CCCC(CC(=O)N2CCc3c(C(F)(F)F)nn(Cc4ccc(F)cc4)c3C2)C1 (stereo not drawn) [Example 17-1]
≤ 100	O=C(CC1CCN(c2ncccn2)CC1)N1CCc2c(C(F)(F)F)nn(Cc3ccc(F)cc3)c2C1 [Example 18-1, 1-(1-(4-Fluorobenzyl)-3-(trifluoromethyl)-4,5-dihydro-1H-pyrazolo[3,4-c]pyridin-6(7H)-yl)-2-(1-(pyrimidin-2-yl)piperidin-4-yl)ethanone TFA salt]
≤ 100	O=C(CC1CCN(c2ccccn2)CC1)N1CCc2c(C(F)(F)F)nn(Cc3ccc(F)cc3)c2C1 [Example 18-2, 1-(1-(4-Fluorobenzyl)-3-(trifluoromethyl)-4,5-dihydro-1H-pyrazolo[3,4-c]pyridin-6(7H)-yl)-2-(1-(pyridin-2-yl)piperidin-4-yl)ethanone TFA salt]
≤ 100	O=C(CC1CCN(c2ccncn2)CC1)N1CCc2c(C(F)(F)F)nn(Cc3ccc(F)cc3)c2C1 [Example 18-3, 1-(1-(4-Fluorobenzyl)-3-(trifluoromethyl)-4,5-dihydro-1H-pyrazolo[3,4-c]pyridin-6(7H)-yl)-2-(1-(pyrimidin-4-yl)piperidin-4-yl)ethanone TFA salt]
≤ 100	O=C(CC1CCN(c2ccncc2)CC1)N1CCc2c(C(F)(F)F)nn(Cc3ccc(F)cc3)c2C1 [Example 18-4, 1-(1-(4-Fluorobenzyl)-3-(trifluoromethyl)-4,5-dihydro-1H-pyrazolo[3,4-c]pyridin-6(7H)-yl)-2-(1-(pyridin-4-yl)piperidin-4-yl)ethanone TFA salt]
